Legend:
Assay in all cases: Bacterial panel testing, MIC by broth microdilution
Assay type in all cases: cell-based
Details in all cases: 20-24 hours growth
[1] = tested on: Enterococcus faecium
Method in brief: (§1)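 Colonies grown 2-4 h at 37° C in Mueller-Hinton or Brain Heart infusion broth (strain-dependent), adjusted to McFarland standard, then diluted into media. Test compound diluted to 10 μg/ml in DMSO (stock) and twofold serially diluted across columns 2-12 in inoculated media. Incubated 20-24 h; clear wells scored for potency.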

[2] = tested on: Eschericia coli
Method in brief: as §1

[3] = tested on: Staphylococcus aureus
Method in brief: as §1

[4] = tested on: Pseudomonas aeruginosa
Method in brief: as §1

[5] = tested on: Salmonella choleraesuis
Method in brief: as §1

[6] = tested on: Bacillus atrophaeus
Method in brief: as §1

CC(C)[C@H](N)C(=O)NC[C@H]1O[C@@H]2O[C@H]3[C@H](O)[C@@H](O)[C@@H](O[C@H]4[C@H](O)[C@@H](O)[C@@H](O[C@H]5[C@H](O)[C@@H](O)[C@@H](O[C@H]6[C@H](O)[C@@H](O)[C@@H](O[C@H]7[C@H](O)[C@@H](O)[C@@H](O[C@H]8[C@H](O)[C@@H](O)[C@@H](O[C@H]1[C@H](O)[C@H]2O)O[C@@H]8CNC(=O)[C@@H](N)C(C)C)O[C@@H]7CNC(=O)[C@@H](N)C(C)C)O[C@@H]6CNC(=O)[C@@H](N)C(C)C)O[C@@H]5CNC(=O)[C@@H](N)C(C)C)O[C@@H]4CNC(=O)[C@@H](N)C(C)C)O[C@@H]3CNC(=O)[C@@H](N)C(C)C.Cl.Cl.Cl.Cl.Cl.Cl.Cl
>200 µg/mL: MIC EF [1] | MIC EC [2] | MIC SA [3] | MIC PA [4] | MIC SC [5] | MIC BA [6]

Cl.Cl.Cl.Cl.Cl.Cl.Cl.N[C@@H](CC(=O)O)C(=O)NC[C@H]1O[C@@H]2O[C@H]3[C@H](O)[C@@H](O)[C@@H](O[C@H]4[C@H](O)[C@@H](O)[C@@H](O[C@H]5[C@H](O)[C@@H](O)[C@@H](O[C@H]6[C@H](O)[C@@H](O)[C@@H](O[C@H]7[C@H](O)[C@@H](O)[C@@H](O[C@H]8[C@H](O)[C@@H](O)[C@@H](O[C@H]1[C@H](O)[C@H]2O)O[C@@H]8CNC(=O)[C@@H](N)CC(=O)O)O[C@@H]7CNC(=O)[C@@H](N)CC(=O)O)O[C@@H]6CNC(=O)[C@@H](N)CC(=O)O)O[C@@H]5CNC(=O)[C@@H](N)CC(=O)O)O[C@@H]4CNC(=O)[C@@H](N)CC(=O)O)O[C@@H]3CNC(=O)[C@@H](N)CC(=O)O
>200 µg/mL: MIC EF [1] | MIC EC [2] | MIC SA [3] | MIC PA [4] | MIC SC [5] | MIC BA [6]

Cl.Cl.Cl.Cl.Cl.Cl.Cl.NCCCC(=O)NC[C@H]1O[C@@H]2O[C@H]3[C@H](O)[C@@H](O)[C@@H](O[C@H]4[C@H](O)[C@@H](O)[C@@H](O[C@H]5[C@H](O)[C@@H](O)[C@@H](O[C@H]6[C@H](O)[C@@H](O)[C@@H](O[C@H]7[C@H](O)[C@@H](O)[C@@H](O[C@H]8[C@H](O)[C@@H](O)[C@@H](O[C@H]1[C@H](O)[C@H]2O)O[C@@H]8CNC(=O)CCCN)O[C@@H]7CNC(=O)CCCN)O[C@@H]6CNC(=O)CCCN)O[C@@H]5CNC(=O)CCCN)O[C@@H]4CNC(=O)CCCN)O[C@@H]3CNC(=O)CCCN
>200 µg/mL: MIC EF [1] | MIC EC [2] | MIC SA [3] | MIC PA [4] | MIC SC [5] | MIC BA [6]

Cl.Cl.Cl.Cl.Cl.Cl.Cl.N[C@@H](Cc1ccc(OCc2ccccc2)cc1)C(=O)NC[C@H]1O[C@@H]2O[C@H]3[C@H](O)[C@@H](O)[C@@H](O[C@H]4[C@H](O)[C@@H](O)[C@@H](O[C@H]5[C@H](O)[C@@H](O)[C@@H](O[C@H]6[C@H](O)[C@@H](O)[C@@H](O[C@H]7[C@H](O)[C@@H](O)[C@@H](O[C@H]8[C@H](O)[C@@H](O)[C@@H](O[C@H]1[C@H](O)[C@H]2O)O[C@@H]8CNC(=O)[C@@H](N)Cc1ccc(OCc2ccccc2)cc1)O[C@@H]7CNC(=O)[C@@H](N)Cc1ccc(OCc2ccccc2)cc1)O[C@@H]6CNC(=O)[C@@H](N)Cc1ccc(OCc2ccccc2)cc1)O[C@@H]5CNC(=O)[C@@H](N)Cc1ccc(OCc2ccccc2)cc1)O[C@@H]4CNC(=O)[C@@H](N)Cc1ccc(OCc2ccccc2)cc1)O[C@@H]3CNC(=O)[C@@H](N)Cc1ccc(OCc2ccccc2)cc1
>200 µg/mL: MIC EF [1] | MIC EC [2] | MIC SA [3] | MIC PA [4] | MIC SC [5] | MIC BA [6]

O=C(O)COC[C@H]1O[C@@H]2O[C@H]3[C@H](O)[C@@H](O)[C@@H](O[C@H]4[C@H](O)[C@@H](O)[C@@H](O[C@H]5[C@H](O)[C@@H](O)[C@@H](O[C@H]6[C@H](O)[C@@H](O)[C@@H](O[C@H]7[C@H](O)[C@@H](O)[C@@H](O[C@H]8[C@H](O)[C@@H](O)[C@@H](O[C@H]1[C@H](O)[C@H]2O)O[C@@H]8COCC(=O)O)O[C@@H]7COCC(=O)O)O[C@@H]6COCC(=O)O)O[C@@H]5COCC(=O)O)O[C@@H]4COCC(=O)O)O[C@@H]3COCC(=O)O
>200 µg/mL: MIC EF [1] | MIC EC [2] | MIC SA [3] | MIC PA [4] | MIC SC [5] | MIC BA [6]

O[C@@H]1[C@@H](O)[C@H]2O[C@H]3[C@H](O)[C@@H](O)[C@@H](O[C@H]4[C@H](O)[C@@H](O)[C@@H](O[C@H]5[C@H](O)[C@@H](O)[C@@H](O[C@H]6[C@H](O)[C@@H](O)[C@@H](O[C@H]7[C@H](O)[C@@H](O)[C@@H](O[C@H]8[C@H](O)[C@@H](O)[C@@H](O[C@@H]1[C@@H](CSCc1ccccc1)O2)O[C@@H]8CSCc1ccccc1)O[C@@H]7CSCc1ccccc1)O[C@@H]6CSCc1ccccc1)O[C@@H]5CSCc1ccccc1)O[C@@H]4CSCc1ccccc1)O[C@@H]3CSCc1ccccc1
>200 µg/mL: MIC EF [1] | MIC EC [2] | MIC SA [3] | MIC PA [4] | MIC SC [5] | MIC BA [6]

CC(=O)OC1C2OC(Cn3cc(Cc4ccccc4)nn3)C(OC3OC(Cn4cc(Cc5ccccc5)nn4)C(OC4OC(Cn5cc(Cc6ccccc6)nn5)C(OC5OC(Cn6cc(Cc7ccccc7)nn6)C(OC6OC(Cn7cc(Cc8ccccc8)nn7)C(OC7OC(Cn8cc(Cc9ccccc9)nn8)C(OC8OC(Cn9cc(Cc%10ccccc%10)nn9)C(O2)C(OC(C)=O)C8OC(C)=O)C(OC(C)=O)C7OC(C)=O)C(OC(C)=O)C6OC(C)=O)C(OC(C)=O)C5OC(C)=O)C(OC(C)=O)C4OC(C)=O)C(OC(C)=O)C3OC(C)=O)C1OC(C)=O (stereo not drawn)
>200 µg/mL: MIC EF [1] | MIC EC [2] | MIC SA [3] | MIC PA [4] | MIC SC [5] | MIC BA [6]

OC1C2OC(Cn3cc(Cc4ccccc4)nn3)C(OC3OC(Cn4cc(Cc5ccccc5)nn4)C(OC4OC(Cn5cc(Cc6ccccc6)nn5)C(OC5OC(Cn6cc(Cc7ccccc7)nn6)C(OC6OC(Cn7cc(Cc8ccccc8)nn7)C(OC7OC(Cn8cc(Cc9ccccc9)nn8)C(OC8OC(Cn9cc(Cc%10ccccc%10)nn9)C(O2)C(O)C8O)C(O)C7O)C(O)C6O)C(O)C5O)C(O)C4O)C(O)C3O)C1O (stereo not drawn)
>200 µg/mL: MIC EF [1] | MIC EC [2] | MIC SA [3] | MIC PA [4] | MIC SC [5] | MIC BA [6]

Cl.Cl.Cl.Cl.Cl.Cl.Cl.NC(CCC(=O)O)C(=O)NCC1OC2OC3C(CNC(=O)C(N)CCC(=O)O)OC(OC4C(CNC(=O)C(N)CCC(=O)O)OC(OC5C(CNC(=O)C(N)CCC(=O)O)OC(OC6C(CNC(=O)C(N)CCC(=O)O)OC(OC7C(CNC(=O)C(N)CCC(=O)O)OC(OC8C(CNC(=O)C(N)CCC(=O)O)OC(OC1C(O)C2O)C(O)C8O)C(O)C7O)C(O)C6O)C(O)C5O)C(O)C4O)C(O)C3O (stereo not drawn)
>200 µg/mL: MIC EF [1] | MIC EC [2] | MIC SA [3] | MIC PA [4] | MIC SC [5] | MIC BA [6]

— patent US20110071108A1, “Beta-Cyclodextrin Derivatives as Antibacterial Agents” (Pinnacle Pharmaceuticals, Inc., priority 2005, published 2011)
